Measurements as given in patent publication US11046647B2, “Activators of the unfolded protein response” (The Board of Trustees of the University of Illinois, priority 2018, dated 2021).

Assays:
[1] = test system: intracellular ATP levels in TYS-Luc cells; test: Intracellular ATP levels, TYS-Luc cells; assay type: cell-based, human; conditions: 10,000 nM thapsigargin, 1 hr
Protocol: TYS-Luc cells were maintained DMSO vehicle (Veh), 1,000 nM BHPI, 1,000 nM (−)-105 with and without 10,000 nM thapsigargin (THG) for the indicated times. ATP levels were determines using a kit and relative ATP levels were from a standard curve. […] (n=3±SEM).

[2] = test system: TYS-Luc cells; test: Cell death with or without thapsigargin, TYS-Luc; assay type: cell-based, human; conditions: 1 hour
Excerpt: TYS-Luc cells were maintained in DMSO vehicle (Veh) or BHPI, or (−)-105 with or without thapsigargin (THG) for the indicated times. Blocking the decline in ATP levels (FIG. 19) with THG inhibited (−)-105-induced cell death.

## C/C=C(/C)C(=O)O[C@H]1C(C)=C2[C@H]([C@@H]1OC(=O)CCCCCCC)[C@@](C)(OC(C)=O)C[C@H](OC(=O)CCC)[C@@]1(O)[C@H]2OC(=O)[C@@]1(C)O [THG, thapsigargin, reference compound]
[1]
  block of (−)-105-induced decline in intracellular ATP levels: completely blocked
[2]
  inhibition of (−)-105-induced cell death: strong inhibition
